Three sequences from patent US11096987B2, “Mutant peptides and methods of treating subjects using the same” (BIOINCEPT, LLC, priority 2015, dated 2021) can be followed below.

Like-named read-outs stand apart in the source and are kept apart here.

Assay [1] relates to CD11b (macrophage) monocytes. The experiment in a line: FITC-PIF assay, binding to CD11b monocytes. To be noted: for CD11b %: FITC-PIF binding.
Another assay deals with CD19 (B cell) monocytes. The experiment in a line: FITC-PIF assay, binding to CD19 monocytes.
Assay [2] deals with insulin degrading enzyme (IDE) (Homo sapiens, UniProt P14735). The experiment in a line: Fluorescent based thermal shift assay. The class given is binding. The following applies: ligands 10 uM, receptor 1 uM. The method, then: Concentrations of the ligands 10 uM and 1 uM of the receptor, buffer consisting of 10 mM HEPES-HCL, 150 mM […], and protein folding sensitive dye SyO 1:1000.
(§1) (FIG. 2). […] (FIG. 3). […] (FIG. 4). […] Thus dependent on the target Kv1.3 or IDE the mutated PIF-1 can have a target-specific effect which can also translate to diverse biological activity.

Another assay has as its system Jurkat T-cells. The experiment in a line: K+ flux inhibition in Jurkat T-cells. The class given is cell-based. The following applies: compared with control.
Text: as §1

The next assay relates to let-7. The experiment in a line: let-7 microRNA levels in microglia and neural cell lines. The class given is cell-based.
Text: as §1
This direct effect on target cells was confirmed by targeting microglia and neuron cell line (Neu) in vitro (FIGS. 5C, D). […] Phosphorylated CREB in turn facilitates expression of (Gap43, Bdnf and Bcl2) (FIG. 5F) that play important role regulating neuronal growth, survival, which is dependent on TLR4 signaling (FIG. 5G). PKA/PKC was reported to impart TBI (Lucke-Wold, Logsdon et al. 2014; Zohar, Lavy et al. 2011; Titus 2013). […] For currently used neuroprotective drugs ability to reach the brain in both intact and damaged settings is difficult. Therefore frequently drugs in order to pass the BBB they have to be very small, or have to be added to agents that would favor passage.

AVRIKPGSANKPSDD [SEQ ID NO: 10]: in assay [1], the “binding affinity to CD11b monocytes compared to natural PIF” value was “higher binding affinity” and the CD11b % was found to be 33.54%. Moreover, in the assay on CD19 (B cell) monocytes, the CD19 % was determined as 5.90% and the “binding affinity to CD19 monocytes compared to natural PIF” value is “higher binding affinity”.
For “MVRGKPGSANKPSDD [SEQ ID NO: 8, PIF mutant]”, the “binding affinity to CD11b monocytes compared to natural PIF” value in assay [1] is “higher binding affinity”. Also, the CD11b % in assay [1] was 35.48%. For the same sequence, the “binding affinity to CD19 monocytes compared to natural PIF” value in the assay on CD19 (B cell) monocytes is “higher binding affinity”. In addition, the CD19 % in the assay on CD19 (B cell) monocytes (FITC-PIF binding) worked out at 5.60%. The “Tm / thermal shift compared to PIF(wt)” value in assay [2] (listed as PIF(mutant-3)) is “increased Tm”; in assay [2] (listed as mut-3) it was “activity was decreased”. Also, in the assay with Jurkat T-cells, the “effect on K+ flux” value was “no effect”. For the same sequence, the “effect on let-7 microRNA” value with let-7 is on record as “lack of effect”.
In the case of “MVRIKEGSANKPSDD [SEQ ID NO: 7, PIF mutant]”, the figures for the “Tm / thermal shift compared to PIF(wt)” value in assay [2] (listed as PIF(mutant-1)) and in assay [2] (listed as mut-1) were “decreased Tm” and “reduced thermal shift”, respectively. In the assay with Jurkat T-cells, the “effect on K+ flux” value is listed as “no effect”.
